Data from patent US20080221205A1, “FURAN DERIVATIVES FOR PREVENTING AND CURING OSTEOPOROSIS AND PHARMACEUTICAL COMPOSITIONS CONTAINING THE SAME” (priority 2002, published 2008).

System: osteoclast formation
Assay: Inhibition rate of furan derivatives versus osteoclast formation (TRAP staining)
Assay type: cell-based, mice
Settings: TRAP-positive multinucleated cells, untreated control set as 100%
Procedure: First, bone marrow cells were isolated, as follow. After sacrificing 7-9 week female mice by cervical dislocation, femur and tibia were excised aseptically while removing attached soft tissues. After cutting both ends of long bones, 1 ml of an enzyme solution, containing 0.1% collagenase (Gibco), 0.05% trypsin and 0.5 mM EDTA (Gibco), was injected to the bone marrow cavity at one end using a syringe with a 26-guage needle, and bone marrow was then collected. After shaking the recovered bone marrow for 30 min, bone marrow cells were collected, and cultured in α-minimum essential medium (α-MEM) supplemented with 10% FBS for 24 hrs. Then, non-adherent cells were collected, which are osteoclast pregenitors, aliquotted onto culture plates at a density of 2×10^5 cells per well, and cultured for 8 days in α-MEM supplemented with 20 ng/ml of macrophage-colony stimulating factor (M-CSF, Peprotech, USA) and 30 ng/ml RANKL (Peprotech, USA). During the 8 days of culturing, the cells were treated with the Compound 1. Thereafter, osteoclast formation was investigated by fixing the cultured cells and then carrying out TRAP staining, as described in the following Experimental Example 2.2. In addition, resorption activity of osteoclasts was investigated by measuring the absorption area after removing osteoclasts in cultures in calcium phosphate-coated plates, as described in Experimental Example 2.3, below.
After cell culture, the adherent cells were washed with PBS, and TRAP staining was performed, as follows. After being fixed with citrate-acetate-formaldehyde for 5 min, the cells were incubated for 1 hr in acetate buffer (prewarmed at 37° C., pH 5.0) containing naphthol AS-BI phosphate, fast Garnet GBC and 7 mM tartrate buffer (pH 5.0). TRAP-positive multinucleated cells having 3 or more nuclei were considered as osteoclasts.
Osteoclast pregenitor cells were isolated, and their differentiation to mature osteoclasts was induced, according to the same method as in the Experimental Example 2-1, while treated with each of the furan derivatives of the present invention. According to the same method as in the Experimental Example 2-2, TRAP staining performed, and TRAP-positive multinucleated cells were counted. An inhibition rate of each furan derivative against osteoclast formation was expressed as percentage, wherein the number of stained cells in a control not treated the furan derivative was arbitrarily set as 100% (Tables 14 to 16).

O=Cc1ccc(COC(=O)Nc2ccccc2Cl)o1 [Compound 55]
Inhibition rate against osteoclast formation, % (0.1 μM): 0%
Inhibition rate against osteoclast formation, % (1 μM): 20%
Inhibition rate against osteoclast formation, % (10 μM): 20%

COC(=O)c1ccc(COc2ccccc2Cl)o1 [Compound 61]
Inhibition rate against osteoclast formation, % (0.1 μM): 0%
Inhibition rate against osteoclast formation, % (1 μM): 0%

O=C(Nc1ccc(Br)cc1)c1ccc(COc2ccc(I)cc2)o1 [Compound 146]
Inhibition rate against osteoclast formation, % (0.1 μM): 0%
Inhibition rate against osteoclast formation, % (1 μM): 0%

O=Cc1ccc(COC(=O)Cc2c(F)cccc2F)o1 [Compound 33]
Inhibition rate against osteoclast formation, % (0.1 μM): 0%
Inhibition rate against osteoclast formation, % (1 μM): 3.3%
Inhibition rate against osteoclast formation, % (10 μM): 50%

O=Cc1ccc(COC(=O)Cc2ccc(F)cc2F)o1 [Compound 39]
Inhibition rate against osteoclast formation, % (0.1 μM): 0%
Inhibition rate against osteoclast formation, % (1 μM): 10%

COc1ccccc1OCc1ccc(C(=O)OC(C)C)o1 [Compound 94]
Inhibition rate against osteoclast formation, % (0.1 μM): 0%
Inhibition rate against osteoclast formation, % (1 μM): 0%
Inhibition rate against osteoclast formation, % (10 μM): 5.9%

CC(C)(C)c1ccc(OCc2ccc(C(=O)NC3CCCCC3)o2)cc1 [Compound 134]
Inhibition rate against osteoclast formation, % (0.1 μM): 0%
Inhibition rate against osteoclast formation, % (1 μM): 0%

CC(C)(C)c1ccc(OCc2ccc(C(=O)Nc3ccccc3)o2)cc1 [Compound 136]
Inhibition rate against osteoclast formation, % (0.1 μM): 0%
Inhibition rate against osteoclast formation, % (1 μM): 0%

COc1ccc(C)cc1NC(=O)c1ccc(COc2cccc(Cl)c2)o1 [Compound 171]
Inhibition rate against osteoclast formation, % (0.1 μM): 0%
Inhibition rate against osteoclast formation, % (1 μM): 0%
Inhibition rate against osteoclast formation, % (10 μM): 0.42%

Cc1ccc(F)c(NC(=O)c2ccc(COc3ccccc3[N+](=O)[O-])o2)c1 [Compound 158]
Inhibition rate against osteoclast formation, % (0.1 μM): 0%
Inhibition rate against osteoclast formation, % (1 μM): 0%

COc1cc([N+](=O)[O-])ccc1NC(=O)c1ccc(COc2ccc(Cl)cc2)o1 [Compound 182]
Inhibition rate against osteoclast formation, % (0.1 μM): 0%
Inhibition rate against osteoclast formation, % (1 μM): 0%

CCCc1ccc(OCc2ccc(C(=O)Nc3ccc(OC)c(OC)c3)o2)cc1 [Compound 164]
Inhibition rate against osteoclast formation, % (0.1 μM): 0%
Inhibition rate against osteoclast formation, % (1 μM): 0%

NC(=O)c1ccc(NC(=O)c2ccc(COc3cc(Cl)ccc3Cl)o2)cc1 [Compound 148]
Inhibition rate against osteoclast formation, % (0.1 μM): 0%

Cc1cc(OCc2ccc(C(=O)Nc3ccc(Cl)cc3)o2)ccc1Cl [Compound 173]
Inhibition rate against osteoclast formation, % (0.1 μM): 0%
Inhibition rate against osteoclast formation, % (1 μM): 0%

O=C(Nc1ccc(F)c(F)c1)c1ccc(COc2ccc(I)cc2)o1 [Compound 143]
Inhibition rate against osteoclast formation, % (0.1 μM): 0%
Inhibition rate against osteoclast formation, % (1 μM): 0%

CCCc1ccc(OCc2ccc(C(=O)Nc3ccc(F)cc3F)o2)c(OC)c1 [Compound 176]
Inhibition rate against osteoclast formation, % (0.1 μM): 0%
Inhibition rate against osteoclast formation, % (1 μM): 0%

O=C(Nc1ccc(I)cc1)c1ccc(COc2ccccc2Br)o1 [Compound 190]
Inhibition rate against osteoclast formation, % (0.1 μM): 0%
Inhibition rate against osteoclast formation, % (1 μM): 0%

O=C(c1ccc(COc2cc(Cl)ccc2Cl)o1)N1CCCCCC1 [Compound 133]
Inhibition rate against osteoclast formation, % (0.1 μM): 0%
Inhibition rate against osteoclast formation, % (1 μM): 0%
Inhibition rate against osteoclast formation, % (10 μM): 0.5%

Cc1cccc(C)c1NC(=O)c1ccc(COc2ccc(Cl)cc2)o1 [Compound 179]
Inhibition rate against osteoclast formation, % (0.1 μM): 0%
Inhibition rate against osteoclast formation, % (1 μM): 0%

COc1ccc(NC(=O)c2ccc(COc3cc(Cl)ccc3Cl)o2)c(OC)c1 [Compound 145]
Inhibition rate against osteoclast formation, % (0.1 μM): 0%

CCCCNC(=O)OCc1ccc(C=O)o1 [Compound 53]
Inhibition rate against osteoclast formation, % (0.1 μM): 0%
Inhibition rate against osteoclast formation, % (1 μM): 10%

Cc1cc(C)cc(OCc2ccc(C(=O)Nc3ccccc3F)o2)c1 [Compound 177]
Inhibition rate against osteoclast formation, % (0.1 μM): 0%
Inhibition rate against osteoclast formation, % (1 μM): 0%

O=Cc1ccc(COC(=O)Cc2ccc3ccccc3c2)o1 [Compound 38]
Inhibition rate against osteoclast formation, % (0.1 μM): 0%
Inhibition rate against osteoclast formation, % (10 μM): 20%

CC(C)(C)NC(=O)c1ccc(COc2ccccc2Br)o1 [Compound 129]
Inhibition rate against osteoclast formation, % (0.1 μM): 0%
Inhibition rate against osteoclast formation, % (1 μM): 0%
Inhibition rate against osteoclast formation, % (10 μM): 2.2%

O=C(O)c1ccc(COc2ccc(F)cc2)o1 [Compound 102]
Inhibition rate against osteoclast formation, % (0.1 μM): 0%
Inhibition rate against osteoclast formation, % (1 μM): 0%

O=C(Oc1ccccc1)c1ccc(COc2ccccc2Cl)o1 [Compound 98]
Inhibition rate against osteoclast formation, % (0.1 μM): 0%
Inhibition rate against osteoclast formation, % (1 μM): 0%

COc1ccccc1OCc1ccc(C(=O)Oc2ccc(Cl)cc2)o1 [Compound 97]
Inhibition rate against osteoclast formation, % (0.1 μM): 0%
Inhibition rate against osteoclast formation, % (1 μM): 0%

O=Cc1ccc(COC(=O)Cc2ccccc2)o1 [Compound 32]
Inhibition rate against osteoclast formation, % (0.1 μM): 0%
Inhibition rate against osteoclast formation, % (10 μM): 50%

Cc1cc(OCc2ccc(C(=O)O)o2)ccc1Cl [Compound 119]
Inhibition rate against osteoclast formation, % (0.1 μM): 0%
Inhibition rate against osteoclast formation, % (1 μM): 0%

COC(=O)c1ccc(COc2ccc(Cl)cc2[N+](=O)[O-])o1 [Compound 66]
Inhibition rate against osteoclast formation, % (0.1 μM): 0%
Inhibition rate against osteoclast formation, % (1 μM): 0%

O=C(Nc1ccc(F)cc1F)c1ccc(COc2c(F)c(F)cc(F)c2F)o1 [Compound 185]
Inhibition rate against osteoclast formation, % (0.1 μM): 0%
Inhibition rate against osteoclast formation, % (1 μM): 0%

CC(C)(C)NC(=O)c1ccc(COCC(F)(F)F)o1 [Compound 127]
Inhibition rate against osteoclast formation, % (0.1 μM): 0%
Inhibition rate against osteoclast formation, % (1 μM): 0%

CCc1ccc(OCc2ccc(C(=O)Nc3cc(C)cc(C)c3)o2)cc1 [Compound 169]
Inhibition rate against osteoclast formation, % (0.1 μM): 0%
Inhibition rate against osteoclast formation, % (1 μM): 0%

O=Cc1ccc(COC(=O)Nc2cccc(Cl)c2)o1 [Compound 49]
Inhibition rate against osteoclast formation, % (0.1 μM): 0%
Inhibition rate against osteoclast formation, % (1 μM): 10%
Inhibition rate against osteoclast formation, % (10 μM): 0%

COC(=O)c1ccc(COc2cc(C)ccc2C(C)C)o1 [Compound 68]
Inhibition rate against osteoclast formation, % (0.1 μM): 0%
Inhibition rate against osteoclast formation, % (1 μM): 0%
Inhibition rate against osteoclast formation, % (10 μM): 5.62%

COC(=O)c1ccc(CN(C)C)o1 [Compound 85]
Inhibition rate against osteoclast formation, % (0.1 μM): 0%
Inhibition rate against osteoclast formation, % (1 μM): 0%

O=Cc1ccc(COC(=O)C(c2ccccc2)(c2ccccc2)c2ccccc2)o1 [Compound 40]
Inhibition rate against osteoclast formation, % (0.1 μM): 0%

O=C(Nc1cc(F)ccc1F)c1ccc(COc2ccccc2Cl)o1 [Compound 161]
Inhibition rate against osteoclast formation, % (0.1 μM): 0%
Inhibition rate against osteoclast formation, % (1 μM): 0%

O=C(Nc1ccccc1)c1ccc(COc2ccc3ccccc3c2)o1 [Compound 137]
Inhibition rate against osteoclast formation, % (0.1 μM): 0%
Inhibition rate against osteoclast formation, % (1 μM): 0%

O=C(Nc1ccc(F)cc1)c1ccc(COc2cccc(Cl)c2)o1 [Compound 141]
Inhibition rate against osteoclast formation, % (0.1 μM): 0%
Inhibition rate against osteoclast formation, % (1 μM): 0%

COC(=O)c1ccc(C)c(NC(=O)c2ccc(COc3ccc(I)cc3)o2)c1 [Compound 152]
Inhibition rate against osteoclast formation, % (1 μM): 0.08%

COC(=O)c1ccc(COc2ccc(Cl)cc2Cl)o1 [Compound 60]
Inhibition rate against osteoclast formation, % (0.1 μM): 0%
Inhibition rate against osteoclast formation, % (1 μM): 0%

O=Cc1ccc(COC(=O)Cc2c(F)cccc2Cl)o1 [Compound 34]
Inhibition rate against osteoclast formation, % (0.1 μM): 0%
